Measurements reported in article PMC3193528, “Isothermal Titration Calorimetric Studies on the Interaction of the Major Bovine Seminal Plasma Protein, PDC-109 with Phospholipid Membranes” (PLoS ONE, 2011).

How the values were obtained:
[1] = biological target: T1, PDC-109 (Bos taurus, UniProt P02784); experiment: isothermal titration calorimetry, one set of sites model; type: binding; conditions: read-out: K a×10^-5 (M^-1) (converted)
T1 construct: native, purified from bull seminal plasma; 109 residues, 23-residue N-terminal stretch plus two Fn-II domains; mixture of glycoforms BSP-A1 and BSP-A2; polydisperse aggregate in solution
T1 sequence (P02784 26-134): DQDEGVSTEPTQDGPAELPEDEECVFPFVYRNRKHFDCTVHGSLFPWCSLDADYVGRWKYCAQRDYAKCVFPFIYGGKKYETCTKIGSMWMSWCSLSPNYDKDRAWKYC
Text: isothermal titration calorimetry, one set of sites model on PDC-109

[2] = biological target: T1, PDC-109; experiment: isothermal titration calorimetry, two sets of sites model; type: binding; conditions: 25 °C; stronger site of two-site fit (n = 0.9), assigned to micelles; acyl chain of lipid not given; read-out: K a (converted)

## CCCCCCCCCCCCCC(=O)OC[C@H](COP(=O)([O-])OCC[N+](C)(C)C)OC(=O)CCCCCCCCCCCCC [DMPC]
[1]
  Kd: 2.44 µM

## CCCCCCCCCCCCCC(=O)OC[C@H](COP(=O)(O)OCC(O)CO)OC(=O)CCCCCCCCCCCCC (stereo partly shown) [DMPG]
[1]
  Kd: 38.5 µM

## CCCCCCCCCCCCCCCC(=O)OC[C@H](COP(=O)([O-])OCC[N+](C)(C)C)OC(=O)CCCCCCCCCCCCCCC [DPPC]
[1]
  Kd: 7.69 µM

## Lyso-PC
[2]
  Kd: 1.43 µM
